Patent publication US12268676B2, “Antiviral applications of picolinic acid and its derivatives” (INDIAN INSTITUTE OF SCIENCE, priority 2021, dated 2025)
Where “and” joins values, the source holds several entries; their conditions need not be identical. Equal entries are not always repeated. Where two headings read alike, the source gives them in different places.

Assays:
[1] = system: PR8 WT virus; type: in vivo, BALB/c mice; details: for reduction of infectious virus titer in lung homogenates (plaque assay): 20 mg/kg PA prophylactically
[2] = system: PR8 WT virus (strain A/Puerto Rico/8/1934 H1N1); type: cell-based, Influenza A virus
[3] = system: IAV PR8 WT strain; type: in vivo, BALB/c mice
[4] = system: Tf647 labelled endocytic vesicles; experiment: Localization of transferrin labelled vesicles, confocal microscopy; type: cell-based; details: VeroE6, 2 mM PA, 100 MOI PR8 WT virus
Method: Localization of transferrin labelled vesicles: Vero cells were seeded on glass coverslips in a 12 well dish to reach 70-80% confluency next day. After 3 hr treatment/not with 2 mM PA, cells were washed once with ice cold PBS and the plate was placed on ice for 10 min before incubating with OptiMEM containing PR8 wild type virus (100 MOI) and 25 μg/mL Transferrin 647 (Tf-647) for 1 hr on ice. Cells were washed twice with PBS and the plate moved to 37° C. After a 15 min chase, cells were fixed with 4% PFA, labelled with anti influenza virus HA antibody (PY102) followed by anti-mouse Alexa 488 secondary antibody to label the virus particles. Nuclei were labelled using 0.1 μg/mL DAPI. Images were acquired using a Zeiss LSM-880 Multiphoton microscope.
The dispersion of transferrin labelled vesicles from perinuclear region to cell periphery was quantified by drawing region of interests (ROIs) up to 20 μm away from the nuclei. The fluorescence intensity of Tf-647 labelled vesicles was then measured along this distance using ImageJ/Fiji.

[5] = system: SARS-CoV-2 (isolate hCoV-19/Hong Kong/VM20001061/2020); experiment: SARS-CoV-2 multi-cycle infection, viral RNA by qRT-PCR; type: cell-based; details: for decrease in total viral RNA copy numbers: 0.01 MOI, 48 hr (FIG. 6)
[6] = system: pseudotyped SARS CoV-2 particles; experiment: microbe, parasite or virus in culture; type: cell-based
[7] = system: SARS-CoV-2 spike protein; experiment: SARS-CoV-2 spike induced syncytia assay; type: cell-based; details: Severe acute respiratory syndrome coronavirus 2, Vero C1008, 24 h, read-out: inhibition of syncytia (area, percentage of untreated control)
[8] = mouse, in vivo
[9] = system: Dengue virus (DENV Luc); experiment: microbe, parasite or virus in culture; type: cell-based; details: A549, 48 h, read-out: inhibition (luciferase, normalized with untreated control)
[10] = system: Para Influenza virus (HPIV Luc); experiment: microbe, parasite or virus in culture; type: cell-based, Human parainfluenza virus; details: unidentified influenza virus
[11] = system: PR8 WT virus; experiment: IAV time of addition assay (IFA for NP, western blot), Example 10; type: cell-based, Influenza A virus; details: for inhibition at 2000 µM: Influenza A virus
[12] = system: Coxsackie virus B3; experiment: Coxsackie virus B3 infection of HeLa cells, western blot for VP1; type: cell-based
Method: The effects of PA against non-enveloped viruses were tested to see if PA would be effective against non-enveloped viruses as well. To this end, HeLa cells were either pre-treated for 3 hr with 2 mM PA, infected with 10 MOI Coxsackie virus B3 in presence of PA and collected 3 hr later (−3 hr); or treated during infection (T0); or virus and PA were incubated together for 1 hr and used for infection (1 hr virus+PA).
Coxsackie virus B3 infection: To study early effects of PA, HeLa cells were pre-treated for 3 hr, infected with 10 MOI CVB3, and collected at 3 hr post infection. Alternatively, cells were infected and treated simultaneously (T0) and collected after 3 hr. Also, a mixture of virus and drug incubated for 1 hr (1 hr PA+Virus) was used for infection to test the effects of PA on virus particles. No additional drug was added here post infection. Expression levels of VP1 protein was then detected by western blot analysis.

[13] = system: Influenza virus (NS1 Luc); experiment: microbe, parasite or virus in culture; type: cell-based, Influenza A virus; details: unidentified influenza virus, A549, read-out: inhibition of virus (luminescence, percentage of untreated virus control)
[14] = system: Adenovirus 5 expressing eGFP; experiment: Adenovirus 5 eGFP infection of HEK cells, flow cytometry; type: cell-based, Adenovirus Serotype 5; details: 2 mM PA, 10 MOI, 24 hr
[15] = system: Japanese Encephalitis Virus (JEV) clinical strain P20778; experiment: JEV infection, western blot of flavivirus envelope protein; type: cell-based; details: 2 mM PA
[16] = system: SARS-CoV-2; experiment: SARS CoV-2 time of addition assay (IFA for spike, western blot); type: cell-based; details: for virus replication mitigated (spike positive cells, IFA): 10 MOI
[17] = system: Zika Luc; experiment: microbe, parasite or virus in culture; type: cell-based; details: A549, 48 h, read-out: inhibition (luciferase, normalized with untreated control)
[18] = system: SARS-CoV-2; experiment: SARS CoV-2 infection studies in the hamster model; type: in vivo, Syrian golden hamsters; details: for viral RNA load mitigated by: 20 mg/kg PA therapeutic treatment
[19] = system: R18 labelled PR8 WT virus; experiment: Influenza virus membrane fusion assay (R18 fluorescence); type: cell-based, Influenza A virus

SMILES: O=C(O)c1ccccn1 [PA, pyridine-2-carboxylic acid]
- reduction of infectious virus titer in lung homogenates (plaque assay) ([1]; IP route): > 10 fold
- reduction of infectious virus titer in lung homogenates (plaque assay) ([1]; oral route): > 10 fold
- survival ([1]; IP prophylactic group, 7 days p.i.): 80%
- bodyweight rescue compared to virus control ([1]; IP prophylactic group, day 7): > 10%
- rescue of total animal body weight ([1]; all groups): Over 90%
- abrogation of lung virus titers, IP vs oral route ([1]; mouse, in vivo): more effective
- clinical scores of histology sections ([1]; mouse, in vivo): recovery
- lung histology analysis ([1]; mouse, in vivo): marked reduction in pathology
- animal survival ([1]; mouse, in vivo, ip): completely rescue
- lung histology analysis ([1]; mouse, in vivo, po): best rescue
- decrease in NP positive cells [2]: no decrease
- decrease in number of NP positive cells compared to virus control [2]: 75% and 40%
- expression levels of virus NP by western blot, virus control vs PA treated [2]: no difference
- decrease in virus titre from lung tissue (plaque assay) compared to untreated ([3]; 20 mg PA, 72 hr post infection): Over 10 fold
- body weight loss after IAV infection ([3]; animals infected in the presence of 100 mg PA): 30%
- body weight loss after IAV infection ([3]; mouse, in vivo): minimal loss in body weight
- decrease in survival rate ([3]; mouse, in vivo): significantly reduced
- distance of Tf647 labelled endocytic vesicles from the nuclei [4]: 15-20 microns
- decrease in total viral RNA copy numbers ([5]; Calu3, 2 mM PA): ~1 log10
- reduction in viral load ([5]; Calu3, 2 mM PA, 0.1 MOI, 48 hr (FIG. 7E)): 2 log
- decrease in total viral RNA copy numbers ([5]; HEK ACE2, 2 mM PA): three
- decrease in total viral RNA copy numbers ([5]; VeroE6, 2 mM PA): three
- more effective than CM [6]: ~10%
- inhibition at 2000 µM ([6]; Severe acute respiratory syndrome coronavirus 2, 60 h, read-out: inhibition of SARS-CoV-2 spike pseudotyped particles (firefly luciferase normalized to virus control)): 90%
- inhibition at 2000 µM ([6]; Severe acute respiratory syndrome coronavirus 2, read-out: inhibition of pseudotyped SARS CoV-2 virus entry): > 50%
- inhibition at 1000 µM [7]: 70%
- inhibition at 2000 µM [7]: 80%
- toxicity (bodyweight changes over 9 days) [8]: toxic
- body weight vs PBS treated control ([8]; ip): no differences in body weight
- decrease in total body weight ([8]; ip): 10-12%
- inhibition at 2000 µM [9]: > 90%
- inhibition at 2000 µM ([10]; A549, 48 h, read-out: inhibition in reporter virus assay): 80 to 90%
- inhibition at 2000 µM ([10]; A549, read-out: inhibition of virus (luminescence, percentage of untreated virus control)): 70 to 80%
- NP positive cells (IFA) [11]: No differences
- inhibition at 2000 µM ([11]; PR8, 1 h, read-out: inhibition (IFA for nucleoprotein and western blot)): 50%
- inhibition at 2000 µM ([11]; PR8, A549, 3 h, read-out: inhibition (IFA, NP)): 80%
- effect on virus entry (VP1 western blot) ([12]; incubation of virus with drug 1 hr prior to infection): did not have any effects
- effect on virus entry (VP1 western blot) ([12]; pre-treatment 3 hr with 2 mM PA, 10 MOI): did not have any effects
- effect on virus entry (VP1 western blot) ([12]; treatment at the time of infection (T0)): did not have any effects
- inhibition at 2000 µM [13]: 70 to 80%
- GFP positive cells, treated vs untreated [14]: Almost no differences
- flavivirus envelope protein by western blot ([15]; 0.1 MOI, 48 hr post infection (FIG. 7K)): inhibition
- decrease in the flavivirus envelope protein expression (western blot) ([15]; VeroE6 cells, 48 hr post infection, normalized against actin): 0.75 fold
- inhibition of virus (IFA, western blot) ([16]; HEK ACE2, PA added 6 hr post infection, collected 3 hr later): ~50%
- inhibition of virus (IFA, western blot) ([16]; HEK ACE2, no pre-treatment, infected in presence of drug (T0)): almost no inhibition
- virus replication mitigated (spike positive cells, IFA) ([16]; HEK ACE2, pre-treated 3 hr with 2 mM PA (-3 hr)): > 80%
- inhibition of virus (IFA, western blot) ([16]; VeroE6, PA added 6 hr post infection, collected 3 hr later): no inhibition
- inhibition of virus (IFA, western blot) ([16]; VeroE6, no pre-treatment, infected in presence of drug (T0)): almost no inhibition
- virus replication mitigated (spike positive cells, IFA) ([16]; VeroE6, pre-treated 3 hr with 2 mM PA (-3 hr)): > 80%
- inhibition at 2000 µM [17]: > 90%
- reduction in lung viral load ([18]; 20 mg/kg PA prophylactically by IP injection): ~2.5 fold
- decrease in lung viral load ([18]; 20 mg/kg PA prophylactically, delivered orally): 1 log
- viral RNA load mitigated by ([18]; IP route): ~1 log
- viral RNA load mitigated by ([18]; oral route): ~1 log
- body weight and lung weight compared to mock treated animals ([18]; 20 mg/kg PA, prophylactic and therapeutic groups): body weight as well as corresponding lung weight rescue
- gross lung pathology and inflammation (images of whole lungs) ([18]; PA treated groups vs mock treated): much of the pathology reduced
- histopathology analysis and scoring of lung sections ([18]; PA treatment groups): decreased pathology
- virus-entry associated increase in fluorescence intensity [19]: able to inhibit
